How the values were obtained:
HepG2 cells [1] = assay: HepG2 cell preservation at 4° C., survival ratio by Cellstain (Calcein-AM/PI) fluorescent double staining; type: cell-based, human; details: for cell survival ratio (fluorescent dye observation): HepG2, 4° C., 48 hours, peptide 10 mg/ml in Euro-Collins solution
Description: (§1) Nfe6-, Nfe8-, and Nfe11-based confirmation of cell protecting effects and cell preserving effects was performed with the use of the HepG2 cell line (FIG. 3) derived from the human liver (purchased from Riken Cell Bank). The experiment was carried out using the HepG2 cells that had been cultured for about a week in Dulbecco's Modified Eagle's Medium (DMEM) (Sigma-Aldrich, Japan) (a culture solution) containing 10% bovine serum (FBS, Gibco) and 50 μg/ml penicillin/streptomycin (Invitrogen). FBS was inactivated by heating at 56° C. for 30 minutes and then used. Culture was conducted in a CO2 incubator (SANYO) using a flask in an atmosphere of 5% CO2 at 37° C. The HepG2 cells that had reached subconfluent conditions (i.e., conditions immediately before the container becomes filled with cells) were treated with a trypsin solution (Wako Pure Chemical Industries, Ltd.) to prepare a cell suspension. The cell suspension was sowed on a cell culture microplate, culture was conducted in a CO2 incubator (5% CO2, 37° C.) overnight, and the resultant was then used for the preservation experiment. In all the experiments described below, cells were preserved at 4° C.
The cells that had been subjected to preservation treatment for 48 hours were stained with Cellstain (Cell Double Staining Kit, available from Dojindo Laboratories), and the cells were observed under a fluorescent microscope (Olympus IX70) to evaluate the survival ratio. Cellstain (Cell Double Staining Kit) involves the use of Calcein-AM fluorescent dye, which stains viable cells, in combination with PI (Propidium iodide) fluorescent dye, which stains dead cells. […] Thereafter, the cell culture plate was mounted on a fluorescent microscope, and “viable cells stained yellow green” were observed using a fluorescence cube for GFP (excitation filter: BP460-480; dichroic mirror: DM450; absorption filter: BA460-510). Also, “dead cells stained red” were observed using a fluorescence cube for YFP (excitation filter: BP490-500; dichroic mirror: DM505; absorption filter: BA515-560).

HepG2 cells [2] = assay: HepG2 cell preservation at 4° C., survival ratio by WST-8 (Cell Counting Kit-8); type: cell-based, human; details: HepG2, 4° C., 48 hours, peptide 10 mg/ml in EC solution, 11 repetitions
Description: as §1, with “The cell suspension was sowed on a cell culture microplate, culture was conducted in a CO2 incubator (5% CO2, 37° C.) overnight, and the resultant was then used for the preservation experiment. In all the experiments described below, cells were preserved at 4° C.” left out
[…] The amount of water-soluble formazan in the medium was evaluated by measuring the absorbance at 450 nm using a microplate reader (Sunrise Remote, Wako Pure Chemical Industries, Ltd.), and the percentage of viable cells after the cell preservation experiment was determined using the number of cells determined by adding WST-8 to the HepG2 cells before the preservation experiment as a control (100%).

HepG2 cells [3] = assay: HepG2 cell preservation at 4° C., survival ratio by amount of LDH released; type: cell-based, human; details: HepG2, 4° C., peptide 10 mg/ml in EC solution, 11 repetitions; for survival ratio based on the assay of the amount of LDH: 24 hours
Description: as §1
Further, the cell survival ratio after 24-hour-preservation was estimated using the LDH Cytotoxicity Detection Kit (Takara Bio Inc.). The LDH amount was measured by sowing the cell suspension prepared by the method described in (5) on a 4-well cell culture plate (Nalge Nunc International K.K.) and subjecting the resultants to the preservation experiment at 4° C. for 24 hours and for 48 hours. […] The amount of red formazan generated was evaluated by assaying the absorbance at 490 nm using a microplate reader (Sunrise Remote, Wako Pure Chemical Industries, Ltd.). In this experiment, the LDH amount when the HepG2 cells had been preserved for 24 hours using a cell preservative solution containing 1% Triton X (the A2 solution) was designated as 100% and the percentage of LDH in the experiment was determined based thereon.

HepG2 cells [4] = assay: HepG2 cell preservation at 4° C., survival ratio by amount of ATP (CellTiter-Glo); type: cell-based, human; details: HepG2, 4° C., 48 hours, peptide 10 mg/ml in EC solution, 11 repetitions
Description: Nfe6-, Nfe8-, and Nfe11-based confirmation of cell protecting effects and cell preserving effects was performed with the use of the HepG2 cell line (FIG. 3) derived from the human liver (purchased from Riken Cell Bank). The experiment was carried out using the HepG2 cells that had been cultured for about a week in Dulbecco's Modified Eagle's Medium (DMEM) (Sigma-Aldrich, Japan) (a culture solution) containing 10% bovine serum (FBS, Gibco) and 50 μg/ml penicillin/streptomycin (Invitrogen). FBS was inactivated by heating at 56° C. for 30 minutes and then used. Culture was conducted in a CO2 incubator (SANYO) using a flask in an atmosphere of 5% CO2 at 37° C. […]
Since the metabolism is reduced at low temperatures, substantially no ATP is synthesized in cells. […] The ATP concentration was measured using a 96-well cell culture plate for emission measurement (Nalge Nunc International K.K.) and the HepG2 cells prepared by the method described in (5). […] ATP concentration after preservation was evaluated by adding a luminescent reagent (CellTiter-Glo, Promega) to wells and assaying the luminescent intensity using a microplate reader (Wallac 1420 ARVOsx, PerkinElmer Life Sciences, Japan). […]

[5] = system: fertilized eggs of Japanese Black Cattle; assay: preservation of fertilized eggs of Japanese Black Cattle at 4° C., survival by microscopic observation; type: cell-based
Description: The fertilized eggs of Japanese Black Cattle were subjected to the preservation experiment at 4° C. for 72 to 96 hours (3 to 4 days) using Nfe11, and the survival ratio of the fertilized eggs after preservation was assayed. At the outset, the follicle-stimulating hormones (FSH) were used to subject superovulated […] cattle to artificial insemination. Seven days thereafter, 3 to 6 fertilized eggs at the initial blastocyst stage were removed from the salpinx of the […] cattle and introduced into a straw having a diameter of 400 micrometers. In this case, Nfe11 powder samples were dissolved in a phosphate buffer (PBS) to a concentration of 5 mg/ml or 10 mg/ml, and the recovered fertilized eggs were soaked in the resulting solutions. Both ends of the straw were sealed, the resultant was allowed to stand in a refrigerator at 4° C., and the preservation experiment was carried out for 72 hours to 96 hours. Survival of the fertilized eggs after the preservation experiment was evaluated using a microscopic observation. As a result, the data as shown below were obtained.

| Substance | cell survival ratio (fluorescent dye observation) (HepG2 cells [1]) | cell protection effects (HepG2 cells [1]; HepG2 cell lines, 10 mg/ml in Euro-Collins solution) | survival ratio of HepG2 cells, amount of WST-8 (HepG2 cells [2]) | survival ratio based on the assay of the amount of LDH (HepG2 cells [3]) | cell survival ratio, amount of LDH released (100 minus LDH value) (HepG2 cells [3]; 48 hours) | cell survival ratio, amount of ATP (HepG2 cells [4]) | survival ratio of cattle fertilized eggs ([5]; 5 mg/ml in PBS, 72 hours) | survival ratio of cattle fertilized eggs ([5]; 5 mg/ml in PBS, 96 hours) | survival ratio of cattle fertilized eggs ([5]; 10 mg/ml in PBS, 96 hours) |
| --- | --- | --- | --- | --- | --- | --- | --- | --- | --- |
| Nfe11: recombinant 66-residue peptide from Zoarces elongatus Kner, amino acid sequence SEQ ID NO: 6, no thermal hysteresis activity | about 75% | sufficient cell protection effects | ~48% | ~34% | ~62% | 60% | 67% | 50% | 50% |
| Nfe6: recombinant Nfe peptide from Zoarces elongatus Kner, SEQ ID NO: 2, no thermal hysteresis activity [reference compound] | about 40% |  |  | ~56% |  |  |  |  |  |
